US20230271142A1, “METHODS OF PREPARING SOLID PARTICULATE MATERIALS” (MICROPORE TECHNOLOGIES LIMITED, priority 2020, published 2023)
Where “and” joins values, the source holds several entries; their conditions need not be identical. Equal values may be shown once. Each block holds one compound with its values, some of them ahead of it.

What was measured:
Type in all cases: physicochemical
[1] = Effect of membrane pore diameter on size distribution of telmisartan particles (CXF, laser diffraction); conditions: for D10 / D50 / D90 / Volume Mean: CXF, DP 58 mL/min
Description: A solution of telmisartan in DMSO (0.06 g/ml) was prepared as the organic phase. The aqueous phase was composed of distilled water. The CXF was configured with membranes of different pore sizes that included 5, 10, 20 and 40 μm pores, spaced 200 μm apart in a square grid. A 9.5 mm insert was used. The materials were pumped using gear pumps. The aqueous continuous phase was pumped through the annulus at the center of the membrane at a rate of 464 ml/min. The organic disperse phase was pumped through the top port of the device at a rate of 58 mL/min, through the membrane pores and into the flow of continuous phase. The solution was collected in a beaker and stirred with an overhead stirrer at 500 rpm for 5-10 minutes.

[2] = Particle size distribution of amorphous telmisartan produced via LDC and CXF (laser diffraction); conditions: three runs; for D10 / D50 / D90 / Volume Mean D[4,3]: 10 μm pores, ± standard deviation; for StDev: of the size distribution
Description: Reproducibility of the Production of Amorphous Telmisartan and Translation from Stirred Cell LDC to Continuous Crossflow CXF Devices A solution of telmisartan in DMSO (0.06 g/ml) was prepared for use as the organic phase. An aqueous phase of 50 ml of DI water was prepared. The LDC was configured with a membrane with 10 μm pores, spaced 200 μm apart in a square grid, in a ring sat underneath a stirrer paddle. […] The stirrer was set to […] (1750 rpm). […] The LDC runs were repeated three times. Additionally, a solution of telmisartan in DMSO (0.06 g/ml) was prepared as an organic phase. An aqueous phase was composed of distilled water. A CXF was configured with a membrane with 10 μm pores, spaced 200 μm apart in a square grid. A 9.5 mm insert was used. The materials were pumped using gear pumps. The aqueous continuous phase was pumped through the annulus at the center of the membrane at a rate of 464 ml/min. The organic disperse phase was pumped through the top port of the device at a rate of 58 mL/min, through the membrane pores and into the flow of continuous phase. This preserved the 8:1 CP:DP ratio used in the LDC experiments and generated a similar shear profile. The solution was collected in a beaker and stirred with an overhead stirrer at 500 rpm for 5-10 minutes. The CXF runs were repeated three times. The particle size distributions of material produced on the LDC are shown in Table 6, with errors given as the standard deviations, alongside those for the CXF runs.

[3] = Effect of disperse phase flow rate on size distribution of telmisartan particles (CXF, laser diffraction); conditions: for D10 / D50 / D90 / Volume Mean: CXF, 10 μm pores
Description: A solution of telmisartan in DMSO (0.06 g/ml) was prepared as the organic phase. The aqueous phase was composed of distilled water. The CXF was configured with a membrane with 10 μm pores, spaced 200 μm apart in a square grid. A 9.5 mm insert was used. The materials were pumped using gear pumps. The aqueous continuous phase was pumped through the annulus at the center of the membrane at […]. The organic disperse phase was pumped through the top port of the device at rates of […], through the membrane and into the flow of continuous phase that was calibrated. The solution was collected in a beaker and stirred with an overhead stirrer at 500 rpm for 5-10 minutes.

[4] = Effect of aqueous phase surfactant on carbamazepine crystals produced via LDC (Jorin ViPA); conditions: for D10 / D50 / D90 / Volume Mean: LDC
Description: 0.4 g of Carbamazepine was dissolved in 10 ml methanol in a beaker at 45° C. to make up the organic phase. In one instance, 0.5% Pluronic PEG P123 (Mn˜5,800) in DI water was used as the aqueous phase. In another instance, 0.5% HPMC (Mn˜10,000) in DI water was used as the aqueous phase.
The LDC was configured with a membrane with 10 μm pores, spaced 200 μm apart in a ring formation. The stirrer speed was set at 14V (1750 rpm), and the organic phase injection rate set at 10 ml/min. The line was primed with organic phase and the aqueous was poured into the stirred cell. The organic phase addition was started and ended when 3 ml of DP was injected.
The solution was left to stir until precipitation was visible. The crystals were analyzed via microscopy and Jorin ViPA. The results are relayed in FIG. 18 and Table 7.

[5] = Crystal size distribution of piroxicam crystals from CXF by laser diffraction (Beckmann Coulter LS-230); conditions: 5 μm pores
Description: The CXF was configured with a membrane with 5 μm pores, spaced 45 μm apart in a square grid. A 9.5 mm insert was used. The materials were pumped using gear pumps. The aqueous continuous phase was pumped at […] through the annulus at the center of the membrane. The organic disperse phase was pumped at 17 mL/min through the top port of the device, through the membrane and into the flow of continuous phase. The solution was collected in a 250 ml beaker and stirred with an overhead stirrer at 500 rpm for 10-15 minutes. The crystals were analyzed via microscopy and Laser Diffraction (Beckmann Coulter LS-230). The results are relayed in FIGS. 4 and 5 and Table 2.

[6] = Crystal size distribution of prednisolone crystals from CXF by Jorin ViPA; conditions: 10 μm pores
Description: 8 g of Prednisolone was dissolved in 200 ml of ethanol in a beaker at 55° C. to make up the organic phase. 0.5% PVA (Mowiol 23-88) in DI water was used as the aqueous phase.
The CXF was configured with a membrane with 10 μm pores, spaced 200 μm apart in a square grid. A 9.5 mm insert was used. The materials were pumped using gear pumps, calibrated so the aqueous continuous phase flow was […] and the organic disperse phase flow was 28 mL/min.
The aqueous continuous phase was pumped through the annulus at the center of the membrane. The organic disperse phase, held at 55° C., was pumped through the top port of the device, through the membrane pores and into the flow of continuous phase.
The resultant solution was collected in a 500 ml beaker and stirred with an overhead stirrer at 500 rpm for 10-15 minutes. The crystals were analyzed via microscopy and Jorin ViPA. The results are relayed in FIGS. 6 and 7 and Table 3.

[7] = Crystal size distribution of paracetamol crystals from CXF by Jorin Visual Particle Size Analyser (ViPA)
Description: A solution of paracetamol in ethanol (0.3 g/ml) was prepared, alongside an aqueous phase consisting of 0.5% wt. PEG […] in DI water. The CXF was configured with a membrane with 10 μm pores, spaced 200 μm apart in a square grid. A 9.5 mm insert was used. The materials were pumped using gear pumps. The aqueous continuous phase was pumped through the annulus at the center of the membrane. The organic disperse phase was pumped through the top port of the device calibrated at a rate of […], through the membrane and into the flow of continuous phase at 200 ml/min. The solution was collected in a beaker and stirred with an overhead stirrer at 500 rpm for 10-15 minutes. The experiment was repeated 3 times. The resultant crystal suspension was examined via microscopy (see FIG. 1), and Jorin Visual Particle Size Analyser (ViPA) for crystal size and uniformity, (FIG. 2 and Table 1).

[8] = Crystal size distribution of metformin crystals produced via LDC (Jorin ViPA)
Description: 0.4 g of Metformin was dissolved in 10 ml methanol in a beaker to make up the organic phase. 0.5% Tween 20 in […] was used as the aqueous phase.
The LDC was configured with a membrane with 10 μm pores, spaced 200 μm apart in a ring-shape. The stirrer speed was set at 14V (1750 rpm), and the injection rate set at 10 ml/min. The line was primed with organic phase and the aqueous phase was poured into the dispersion cell. Addition of the organic phase was started and ended when 3 ml of DP was injected.
The solution was left to stir until precipitation was visible. The crystals were analyzed via microscopy and Jorin ViPA. The results are relayed in FIG. 23 and Table 9.

[9] = 10 μm pore membrane (average of three)
[10] = disperse phase 58 mL/min (average of three)
[11] = aqueous phase 0.5% HPMC (form III)
[12] = aqueous phase 0.5% P123 (form II)
[13] = volume distribution, ethanol solution into 0.5% HPMC water
[14] = volume distribution, ethanol solution 55° C. into 0.5% PVA water
[15] = Average ± Standard Deviation of 3 runs
[16] = CXF, 10 μm pores, Average ± Standard Deviation of 3 runs
[17] = volume distribution, CXF, 10 μm pores, ethanol solution into 0.5% PEG P123 water, single runs 1-3
[18] = 10 μm pores, methanol solution into 0.5% Tween 20 in acetonitrile

Compound: NC(=O)N1c2ccccc2C=Cc2ccccc21 [Carbamazepine]
Span ([4]; 0.5% HPMC): 1.10
Span ([4]; 0.5% P123): 0.81
D10 [4, 11]: 28.90 μm
D50 [4, 11]: 44.92 μm
D90 [4, 11]: 78.16 μm
Volume Mean [4, 11]: 48.84 μm
D10 [4, 12]: 29.92 μm
D50 [4, 12]: 42.37 μm
D90 [4, 12]: 64.09 μm
Volume Mean [4, 12]: 45.79 μm

Compound: CN(C)C(=N)N=C(N)N [Metformin]
Span [8]: 1.09
Size Mean ([8]; 10 μm pores): 12.430 μm
Volume Mean ([8]; 10 μm pores): 53.10 μm
D10 [8, 18]: 25.63 μm
D50 [8, 18]: 50.80 μm
D90 [8, 18]: 81.03 μm

Other lines, results leading:

C.V ([1]; 5 μm pore membrane): 53.31%
C.V [1, 9]: 50.06%
C.V ([1]; 20 μm pore membrane): 57.77%
C.V ([1]; 40 μm pore membrane): 56.41%
D10 ([1]; 5 μm pore membrane): 6.506 μm
D50 ([1]; 5 μm pore membrane): 13.01 μm
D90 ([1]; 5 μm pore membrane): 22.83 μm
Volume Mean ([1]; 5 μm pore membrane): 14.31 μm
D10 [1, 9]: 7.359 μm
D50 [1, 9]: 15.66 μm
D90 [1, 9]: 28.00 μm
Volume Mean [1, 9]: 17.11 μm
D10 ([1]; 20 μm pore membrane): 6.555 μm
D50 ([1]; 20 μm pore membrane): 18.72 μm
D90 ([1]; 20 μm pore membrane): 37.68 μm
Volume Mean ([1]; 20 μm pore membrane): 20.60 μm
D10 ([1]; 40 μm pore membrane): 8.451 μm
D50 ([1]; 40 μm pore membrane): 23.16 μm
D90 ([1]; 40 μm pore membrane): 45.99 μm
Volume Mean ([1]; 40 μm pore membrane): 25.42 μm
D10 ([2]; CXF): 7.359 ± 1.096 μm
D50 ([2]; CXF): 15.66 ± 1.558 μm
D90 ([2]; CXF): 28.0 ± 2.091 μm
Volume Mean D[4,3] ([2]; CXF): 17.11 ± 1.538 μm
CV ([2]; CXF): 50.57 ± 3.09%
Span ([2]; CXF): 1.389 ± 0.070
D10 ([2]; LDC): 6.952 ± 0.357 μm
D50 ([2]; LDC): 14.32 ± 0.693 μm
D90 ([2]; LDC): 26.43 ± 1.268 μm
Volume Mean D[4,3] ([2]; LDC): 15.79 ± 0.755 μm
CV ([2]; LDC): 51.07 ± 0.937%
Span ([2]; LDC): 1.360 ± 0.028
StDev ([2]; CXF): 8.565 ± 0.275 μm
StDev ([2]; LDC): 8.066 ± 0.430 μm
D10 ([3]; disperse phase 15 mL/min): 4.653 μm
D50 ([3]; disperse phase 15 mL/min): 10.11 μm
D90 ([3]; disperse phase 15 mL/min): 15.76 μm
Volume Mean ([3]; disperse phase 15 mL/min): 10.17 μm
D10 ([3]; disperse phase 29 mL/min): 4.981 μm
D50 ([3]; disperse phase 29 mL/min): 10.09 μm
D90 ([3]; disperse phase 29 mL/min): 18.9 μm
Volume Mean ([3]; disperse phase 29 mL/min): 11.79 μm
D10 [3, 10]: 7.359 μm
D50 [3, 10]: 15.66 μm
D90 [3, 10]: 28.00 μm
Volume Mean [3, 10]: 17.11 μm
Span ([3]; disperse phase 15 mL/min): 1.099
Span ([3]; disperse phase 29 mL/min): 1.379
Span [3, 10]: 1.318
Compound: CCCc1nc2c(C)cc(-c3nc4ccccc4n3C)cc2n1Cc1ccc(-c2ccccc2C(=O)O)cc1 [Telmisartan, telmisartan]

Span [5]: 1.78
Mean ([5]; volume distribution): 6.978 μm
D10 [5, 13]: 1.240 μm
D50 [5, 13]: 6.562 μm
D90 [5, 13]: 12.96 μm
Compound: CN1C(C(=O)Nc2ccccn2)=C(O)c2ccccc2S1(=O)=O [Piroxicam]

Span [6]: 0.72
Volume Mean [6]: 45.73 μm
D10 [6, 14]: 29.47 μm
D50 [6, 14]: 43.76 μm
D90 [6, 14]: 60.78 μm
Compound: C[C@]12C=CC(=O)C=C1CC[C@@H]1[C@@H]2[C@@H](O)C[C@@]2(C)[C@H]1CC[C@]2(O)C(=O)CO [Prednisolone]

CV % [7, 15]: 39.07 ± 1.660%
Span [7, 15]: 1.100 ± 0.066
Volume Mean D[4,3] ([7]; CXF, 10 μm pores, ethanol solution into 0.5% PEG P123 water, single runs 1-3): 45.37 μm and 44.28 μm and 41.17 μm
D10 [7, 16]: 23.81 ± 0.894 μm
D50 [7, 16]: 40.42 ± 0.573 μm
D90 [7, 16]: 68.31 ± 3.604 μm
Volume Mean D[4,3] [7, 16]: 43.61 ± 1.258 μm
Span ([7]; CXF, 10 μm pores, single runs 1-3): 1.232 and 1.044 and 1.024
StDev ([7]; of the size distribution, Average ± Standard Deviation of 3 runs): 17.05 ± 1.021 μm
D10 [7, 17]: 24.12 μm and 25.18 μm and 22.13 μm
D50 [7, 17]: 41.15 μm and 40.82 μm and 39.29 μm
D90 [7, 17]: 74.81 μm and 67.77 μm and 62.36 μm
Compound: CC(=O)Nc1ccc(O)cc1 [Paracetamol, paracetamol]
